Reference: US8513380B2, “Peptides for binding fibrinogen and fibrin” (Georgia Tech Research Corporation, priority 2009, dated 2013)
Like-named read-outs stand apart in the source and are kept apart here. Where a SMILES comes first, the peptide text is derived from it.

Experiments:
fibrinogen = target: T1, fibrinogen (Homo sapiens, UniProt P02675+P02679); experiment: ELISA specificity assay: soluble Gxxx tetrapeptides competing with immobilized GPRP-FnIII9-10-C; type: binding; conditions: tetrapeptide in 10^2- to 10^4-fold molar excess; one-hour pre-incubation
T1 sequence (P02679 27-437 isoform P02679-2 limits assumed): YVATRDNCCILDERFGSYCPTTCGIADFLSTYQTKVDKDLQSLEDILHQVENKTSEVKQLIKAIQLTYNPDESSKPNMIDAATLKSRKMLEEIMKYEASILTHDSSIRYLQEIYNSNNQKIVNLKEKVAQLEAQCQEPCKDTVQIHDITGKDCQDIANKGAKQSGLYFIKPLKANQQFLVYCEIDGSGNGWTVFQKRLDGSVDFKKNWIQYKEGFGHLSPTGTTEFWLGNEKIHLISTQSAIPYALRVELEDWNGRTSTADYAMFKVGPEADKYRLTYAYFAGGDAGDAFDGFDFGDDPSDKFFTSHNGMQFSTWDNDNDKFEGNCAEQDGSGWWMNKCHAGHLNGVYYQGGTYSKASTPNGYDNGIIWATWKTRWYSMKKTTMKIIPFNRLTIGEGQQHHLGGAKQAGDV
T1 sequence (P02675 31-491): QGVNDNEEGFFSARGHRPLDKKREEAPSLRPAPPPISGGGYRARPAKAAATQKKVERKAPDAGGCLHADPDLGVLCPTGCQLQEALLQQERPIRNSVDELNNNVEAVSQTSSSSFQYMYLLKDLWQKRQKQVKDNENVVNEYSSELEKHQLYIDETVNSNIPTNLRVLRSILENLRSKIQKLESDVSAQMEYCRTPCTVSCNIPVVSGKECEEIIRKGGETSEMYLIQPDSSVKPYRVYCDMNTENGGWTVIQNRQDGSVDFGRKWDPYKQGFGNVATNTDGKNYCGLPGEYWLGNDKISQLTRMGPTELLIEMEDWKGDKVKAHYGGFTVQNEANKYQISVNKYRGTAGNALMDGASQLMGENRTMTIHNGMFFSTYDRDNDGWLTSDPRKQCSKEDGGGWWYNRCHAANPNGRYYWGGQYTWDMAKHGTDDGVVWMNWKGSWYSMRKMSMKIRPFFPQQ
T1 sequence (P02671 20-629 partner limits assumed): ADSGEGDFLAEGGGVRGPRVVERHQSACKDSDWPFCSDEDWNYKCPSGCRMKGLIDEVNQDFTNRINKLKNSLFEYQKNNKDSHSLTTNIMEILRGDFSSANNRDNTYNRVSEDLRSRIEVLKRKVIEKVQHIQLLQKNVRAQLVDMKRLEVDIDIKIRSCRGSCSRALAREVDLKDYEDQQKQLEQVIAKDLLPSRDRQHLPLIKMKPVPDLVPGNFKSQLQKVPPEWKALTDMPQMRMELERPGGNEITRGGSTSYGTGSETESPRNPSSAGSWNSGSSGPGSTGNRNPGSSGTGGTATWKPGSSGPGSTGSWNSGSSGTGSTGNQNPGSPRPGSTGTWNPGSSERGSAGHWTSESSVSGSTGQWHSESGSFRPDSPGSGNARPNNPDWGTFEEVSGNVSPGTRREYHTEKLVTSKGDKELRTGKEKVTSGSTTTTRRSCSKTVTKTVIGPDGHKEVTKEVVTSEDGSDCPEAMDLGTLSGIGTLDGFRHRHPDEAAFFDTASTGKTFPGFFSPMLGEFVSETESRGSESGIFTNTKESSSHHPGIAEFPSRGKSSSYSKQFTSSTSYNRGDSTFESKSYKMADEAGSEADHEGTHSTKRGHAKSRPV
Method: A modified ELISA technique was used to establish the affinity of fibrinogen for the various Gxxx-FnIII9-10-C (SEQ ID NO:20) proteins covalently immobilized on maleimide-activated plates via their C-terminal cysteines. Sulfhydryl-containing proteins/peptides were added to pre-blocked maleimide-activated 96-well plates (Pierce, Thermo Scientific, Rockford, Ill.) at 10 μg/mL in conjugation buffer (CB) comprising 150 mM NaCl, 100 mM phosphate, 10 mM EDTA, pH 7.2, with attachment occurring via maleimide-sulfhydryl (thioether) linkages. TCEP (1 mM) was added to maintain sulfhydryl groups in the reduced form. Following, unreacted maleimide groups were quenched with 20 μg/mL cysteine in CB. Human fibrinogen (25 μg/mL) was incubated with the substrates and unbound protein removed by washing. Bound fibrinogen was detected using HRP-conjugated goat anti-fibrinogen antibody (MP Biomedicals #55239) and 1-Step™ Ultra TMB-ELISA (Pierce). The TMB reaction was quenched with 1 M H2SO4 before measuring the Abs450 nm using the SPECTRAMAX® M2 (Molecular Devices, Sunnyvale, Calif.). All intervening wash steps were conducted using washing buffer (WB) comprising 150 mM NaCl, 100 mM phosphate, 0.05% Tween-20, pH 7.2; all binding steps were conducted using binding buffer (BB) comprising PBS+1% BSA. For basic affinity assays, the concentration of the fusion proteins was varied. For specificity assays, varying concentrations of Gxxx (SEQ ID NO:20) tetrapeptides (Genscript, Piscataway, N.J.) were added to the fibrinogen solution during incubation with the covalently immobilized proteins.
The tetrapeptides GPRV (SEQ ID NO:2) and GHRP (SEQ ID NO:3) are also known to bind fibrinogen via knob:pocket interactions, albeit with reduced affinities (Laudano A P, et al. Biochemistry 1980, 19(5):1013-1019).

fibrinogen fragment D = target: T2, fibrinogen fragment D (Homo sapiens, UniProt P02675+P02679); experiment: SPR binding kinetics of knob 'A' peptides on immobilized fibrinogen fragment D; conditions: for kon / koff: Langmuir 1:1 model; for kon: read-out: ka, association rate; for koff: read-out: kd, dissociation rate; for Kd: heterogeneous ligand model, KD = kd/ka
T2 construct: Fibrinogen fragment D, comprising the C-terminal polymerization pockets of fibrinogen (i.e. D-domain) without the N-terminal knobs; purchased Enzyme Research Laboratories FIB3
T2 sequence (P02679 89-432 limits assumed): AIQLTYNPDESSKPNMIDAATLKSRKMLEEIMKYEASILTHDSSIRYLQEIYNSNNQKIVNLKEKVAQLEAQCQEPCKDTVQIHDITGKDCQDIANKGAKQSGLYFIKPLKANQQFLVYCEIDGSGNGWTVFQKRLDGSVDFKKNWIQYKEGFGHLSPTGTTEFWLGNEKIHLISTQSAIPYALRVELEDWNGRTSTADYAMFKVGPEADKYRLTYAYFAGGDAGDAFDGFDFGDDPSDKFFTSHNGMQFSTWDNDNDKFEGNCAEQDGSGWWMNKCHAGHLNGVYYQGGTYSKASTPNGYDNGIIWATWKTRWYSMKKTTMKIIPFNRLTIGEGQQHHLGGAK
T2 sequence (P02675 164-491 limits assumed): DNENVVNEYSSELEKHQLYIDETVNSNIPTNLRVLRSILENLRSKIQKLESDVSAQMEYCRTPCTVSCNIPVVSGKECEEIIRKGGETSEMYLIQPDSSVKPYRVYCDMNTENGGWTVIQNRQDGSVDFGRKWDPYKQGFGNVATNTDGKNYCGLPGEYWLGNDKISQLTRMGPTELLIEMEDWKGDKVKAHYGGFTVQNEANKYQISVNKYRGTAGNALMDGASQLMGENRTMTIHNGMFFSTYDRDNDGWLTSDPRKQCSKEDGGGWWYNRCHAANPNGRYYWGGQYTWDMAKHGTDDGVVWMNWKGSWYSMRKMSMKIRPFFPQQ
T2 sequence (P02671 124-216 partner limits assumed): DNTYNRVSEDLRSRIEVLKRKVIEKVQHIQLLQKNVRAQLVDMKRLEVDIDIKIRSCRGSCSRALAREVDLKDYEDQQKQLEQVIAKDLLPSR
Method: Human fibrinogen (Enzyme Research Laboratories, South Bend, Ind.) at 2 mg/mL was digested with 0.1 U/mL human plasmin (ERL) in HEPES+CaCl2 buffer (150 mM NaCl, 5 mM CaCl2, 25 mM HEPES; pH 7.4) overnight at room temperature. Fragment D was isolated as previously described, with slight modifications (Kostelansky M S, et al. Biochemistry. 2002; 41(40):12124-12132). Briefly, the plasmin-digested fibrinogen and GPRPAA (SEQ ID NO:10) beads were incubated for 30 min, with occasional agitation. The unbound proteins and protein fragments were removed with excessive washing with HEPES+CaCl2 buffer. Fragment D was eluted with 1M sodium bromide and 50 mM sodium acetate (pH 5.3). Eluted samples were pooled together and exchanged back into HEPES+CaCl2 buffer using a centrifugal filter (MWCO 10,000). Fragment D was verified by SDS-PAGE and stored at −80° C. until use.
The Biacore 2000 (Biacore Lifesciences, GE Healthcare, Pittsburgh, Pa.) was used investigate kinetic binding constants (ka and kd) of knob ‘A’ peptide variants for fibrinogen fragment D. Briefly, fragment D was covalently immobilized to gold-coated SPR sensor chips via self-assembled monolayer (SAM) surface chemistry in order to generate a non-fouling surface with a controlled density of reactive carboxylic acid groups. Mixed SAMs were generated on gold-coated chips as described previously (Petrie T A, et al. Biomaterials. 2006; 27(31):5459-5470) by incubating with a 1 mM mixture of tri(ethylene glycol)-terminated alkanethiols (HS-(CH2)11—(OCH2CH2)3—OH; EG3; ProChimia, Poland) and carboxylic acid-terminated alkanethiols (HS-(CH2)11—(OCH2CH2)6—OCH2COOH; EG6-COOH) for 4 hrs. Upon loading the sensor chip into the Biacore 2000, the EG6-COOH in all four flow cells was activated by flowing 200 mM 1-ethyl-3-(3-dimethylaminopropyl) carbodiimide (EDC; Sigma Aldrich, St. Louis, Mo.) and 50 mM N-hydroxysuccinimide (NHS; Sigma Aldrich) (5 μL/min for 10 min). Immediately following activation, fragment D was immobilized in three flow cells (5 μL/min for 10 min) to achieve 1800-2000 resonance units (RU; 1RU˜1 pg/mm^2). Unreacted NHS groups were quenched in all four flow cells (three sample cells and one reference cell) with 20 mM ethanolamine ([…] for 10 min). Upon stabilization of the baseline signal, kinetic binding experiments were run in duplicate with the peptide variants as the flow analytes. Five varying concentrations for each peptide (0.94 μM to 150 μM) were flowed at 25 μL/min for 4 min immediately followed by a 10 min dissociation phase. Between each run, the surface was regenerated with 1M sodium bromide and 50 mM sodium acetate (pH 6.0). SPR experiments were performed three times with varying peptide injection order to rule out binding trends associated with injection sequence. Peptide solutions were incubated with tris(2-carboxyethyl)phosphine (TCEP) immobilized on agarose beads (Thermo Fisher Scientific, Inc; Rockland, Ill.) to ensure reduction of any disulfide bonds between C-terminal cysteines.
SPR sensorgrams were analyzed with the aid of Scrubber 2 and ClampXP software (Center for Biomolecular Interactions Analysis, University of Utah) (Morton T A, et al. Methods Enzymol. 1998; 295:268-294; Morton T A, et al. Anal Biochem. 1995; 227(1):176-185; Myszka D G, et al. Trends Biochem Sci. 1998; 23(4):149-150). Prior to analysis, all sensorgrams were inspected for abnormalities (i.e. baseline drift, air spikes, or irregular deviations) and excluded. Reference cell responses were subtracted from corresponding active response curves. Double-referenced curves were acquired by further subtracting the reference cell blank buffer injections from each reference-subtracted response curve (Myszka D G. Mol. Recognit. 1999; 12(5):279-284). All double-referenced curves were normalized by the molecular weight of each peptide and multiplied by 1000 to account for minor variations in response due to molecular weight. The resulting curves were then analyzed and fitted to the kinetic models. […]

With GHRP (listed as Homo sapiens) the “competition with immobilized GPRP-FnIII9-10-C for binding to fibrinogen” value (fibrinogen) was “not a significant competitor”.
With `C[C@H](NC(=O)[C@H](C)NC(=O)[C@@H]1CCCN1C(=O)[C@H](CCCNC(=N)N)NC(=O)[C@@H]1CCCN1C(=O)CN)C(=O)N[C@@H](CS)C(=O)O` [GPRPAAC] (H-GPRPAAC-OH) the kon (fibrinogen fragment D) was 1140 ± 30 M⁻¹ s⁻¹, the koff (fibrinogen fragment D) was 0.0117 ± 0.00017 s⁻¹ and the Kd (fibrinogen fragment D; site 1, read-out: KD1) was 4.53 µM. For the same compound, the Kd (fibrinogen fragment D; site 2, read-out: KD2) was 8.52 µM.
In the case of `C[C@H](NC(=O)[C@@H]1CCCN1C(=O)[C@H](Cc1ccccc1)NC(=O)[C@@H]1CCCN1C(=O)[C@H](CCCNC(=N)N)NC(=O)[C@@H]1CCCN1C(=O)CN)C(=O)N[C@@H](CS)C(=O)O` [GPRPFPAC] (H-GPRPFPAC-OH), the kon (fibrinogen fragment D) is reported as 12500 ± 260 M⁻¹ s⁻¹, the koff (fibrinogen fragment D) is reported as 0.00727 ± 8e-05 s⁻¹ and the Kd (fibrinogen fragment D; site 1, read-out: KD1) is reported as 3.73 µM. It also gave a Kd (fibrinogen fragment D; site 2, read-out: KD2) of 1.08 µM.
Work on `CC(C)[C@H](NC(=O)[C@H](CCCNC(=N)N)NC(=O)[C@@H]1CCCN1C(=O)CN)C(=O)N[C@H](C(=O)N[C@@H](CCC(=O)O)C(=O)N[C@@H](CCCNC(=N)N)C(=O)N[C@@H](CS)C(=O)O)C(C)C` [GPRVVERC] (H-GPRVVERC-OH) yielded a kon (fibrinogen fragment D) of 280 ± 4 M⁻¹ s⁻¹, a koff (fibrinogen fragment D) of 0.02343 ± 0.00023 s⁻¹ and a Kd (fibrinogen fragment D; site 1, read-out: KD1) of 53.9 µM. The Kd (fibrinogen fragment D; site 2, read-out: KD2) was 15.7 µM.
GPRV (listed as Homo sapiens) was tested, and the “competition with immobilized GPRP-FnIII9-10-C for binding to fibrinogen” value (fibrinogen) was “to a lesser extent as compared to GPRP”.
With “GPSPAAC (listed as Homo sapiens) [reference compound]” the “SPR binding response (in words)” value (fibrinogen fragment D) was “minimal binding response”.
In the case of `CC(C)[C@H](NC(=O)[C@H](CCCNC(=N)N)NC(=O)[C@@H]1CCCN1C(=O)CN)C(=O)N[C@H](C(=O)N[C@@H](C)C(=O)N[C@@H](C)C(=O)N[C@@H](CS)C(=O)O)C(C)C` [GPRVVAAC] (H-GPRVVAAC-OH), the kon (fibrinogen fragment D) is reported as 90 ± 1 M⁻¹ s⁻¹, the koff (fibrinogen fragment D) is reported as 0.01073 ± 4e-05 s⁻¹ and the Kd (fibrinogen fragment D; site 1, read-out: KD1) is reported as 48.5 µM. For the same compound, the Kd (fibrinogen fragment D; site 2, read-out: KD2) was 25 µM.
In the case of `N=C(N)NCCC[C@H](NC(=O)[C@H](CCC(=O)O)NC(=O)[C@@H]1CCCN1C(=O)[C@@H]1CCCN1C(=O)[C@H](CCCNC(=N)N)NC(=O)[C@@H]1CCCN1C(=O)CN)C(=O)N[C@@H](CS)C(=O)O` [GPRPPERC] (H-GPRPPERC-OH), the kon (fibrinogen fragment D) is reported as 1290 ± 30 M⁻¹ s⁻¹, the koff (fibrinogen fragment D) is reported as 0.00992 ± 0.00013 s⁻¹ and the Kd (fibrinogen fragment D; site 1, read-out: KD1) is reported as 18.2 µM. The Kd (fibrinogen fragment D; site 2, read-out: KD2) was 2.93 µM.
